Experimental data published in patent US20180296551A1, “METHODS AND COMPOSITIONS FOR TREATING NEURODEGENERATIVE DISEASES” (priority 2015, published 2018).

Experiments:
SOD1-G93A mice [1] = assay: Survival (time taken until death) of SOD1-G93A mice; type: in vivo
Description: Experimental set-up: 50 day old female SOD1-G93A mice were treated with either 5 mg/kg AMD3100 alone, 896 mg/kg Na-L-lactate alone or a combination of […] AMD3100 and 896 mg/kg Na-L-lactate twice a week, starting at 50 days old (for ALS), until death. All treatments were administered subcutaneously. The mice were weighed once a week following the various treatments and tested for motor function, also once a week. The time taken until death was recorded.
Experimental set-up: 50 day old female SOD1-G93A mice were treated with either 5 mg/kg AMD3100 alone or a complex of 0.25 mg/kg AMD3100+0.08 mg/kg Zinc or 0.125 mg/kg AMD3100+0.04 mg/kg Zinc twice a week, starting at 50 days old until death. All treatments were administered subcutaneously. The mice were weighed once a week following the various treatments and tested for motor function, also once a week. The time taken until death was recorded.
Experimental set-up: 50 day old male SOD1-G93A mice were treated with either 5 mg/kg AMD3100 alone or a complex of 0.5 mg/kg AMD3100+0.17 mg/kg Zinc+896 mg/kg lactate twice a week, starting at 50 days old, till death. All treatments were administered subcutaneously. The time taken until death was recorded.

SOD1-G93A mice [2] = details: SOD1-G93A transgenic mice; previously shown; cited from earlier work
AP = AP by ELISA in 3×Tg-AD mice; type: in vivo; details: membrane fraction, 0.5 mg/kg AMD3100 (+0.17 mg/kg Zn+896 mg/kg lactate), vs PBS
Description: Experimental set-up: 9 month old 3×Tg-AD mice were treated with PBS or 0.5 mg/kg AMD3100 or 0.5 mg/kg AMD3100 0.17 mg/kg Zn or 0.5 mg/kg AMD3100+0.17 mg/kg Zn+896 mg/kg lactate once a week. All treatments were administered subcutaneously. After 3 month of treatment, all mice were subjected to Y maze test in order to evaluate their cognitive function. Each mouse was allowed to explore two arms of the Y maze for 5 min, rested for another 5 min, and then explored all 3 arms of the Y maze for another 5 min.

MCT1 = details: female SOD1-G93A mice; 5 mg/kg AMD3100; spinal cord (FIG. 4A); vs control
Description: The control group is set to 100%. Results are mean ±S.E.M, T-test; *p<0.05.

SOD1-G93A mice [3] = details: SOD1-G93A transgenic mice; previously shown; cited from earlier work; remark: listed apart in the source
SOD1-G93A mice [4] = details: SOD1-G93A transgenic mice; previously shown; cited from earlier work; remark: listed apart in the source

| Compound | median survival (SOD1-G93A mice [1]; female SOD1-G93A mice, 5 mg/kg AMD3100 s.c. twice a week from 50 days old) | median survival (SOD1-G93A mice [1]; male SOD1-G93A mice, 5 mg/kg AMD3100 s.c. twice a week from 50 days old) | disease onset (in words) (SOD1-G93A mice [2]) | AP change by ELISA (AP) | MCT1 levels (MCT1) | motor function (in words) (SOD1-G93A mice [3]) | survival (in words) (SOD1-G93A mice [4]) | median survival (SOD1-G93A mice [1]; female SOD1-G93A mice, 896 mg/kg lactate s.c. twice a week from 50 days old) |
| --- | --- | --- | --- | --- | --- | --- | --- | --- |
| c1cc(CN2CCCNCCNCCCNCC2)ccc1CN1CCCNCCNCCCNCC1 [AMD3100, 1,1′-[1,4-phenylenebis(methylene)]bis [1,4,8,11-tetraazacyclotetradecane]] | 144 days | 140 days | delayed | Reduction in AP was statistically significant | increase | improved | significantly increased | – |
| C[C@H](O)C(=O)[O-].[Na+] [lactate, Na-L-lactate] | – | – | – | – | – | – | – | 148 days |
